According to ChEMBL document CHEMBL4507291 (2021):

How the values were obtained:
[1] = target: Serine/threonine-protein kinase LATS1 (Homo sapiens) (UniProt O95835)
[2] = target: Serine/threonine-protein kinase 25 (Homo sapiens) (UniProt O00506)
[3] = target: Serine/threonine-protein kinase Nek6 (Homo sapiens) (UniProt Q9HC98)
[4] = target: Cyclin-dependent kinase 2 (Homo sapiens) (UniProt P24941)
[5] = target: Mitogen-activated protein kinase kinase kinase 14 (Homo sapiens) (UniProt Q99558)
[6] = target: Serine/threonine-protein kinase 36 (Homo sapiens) (UniProt Q9NRP7)
Serine/threonine-protein kinase 36 (Homo sapiens), sequence (Q9NRP7 whole entry): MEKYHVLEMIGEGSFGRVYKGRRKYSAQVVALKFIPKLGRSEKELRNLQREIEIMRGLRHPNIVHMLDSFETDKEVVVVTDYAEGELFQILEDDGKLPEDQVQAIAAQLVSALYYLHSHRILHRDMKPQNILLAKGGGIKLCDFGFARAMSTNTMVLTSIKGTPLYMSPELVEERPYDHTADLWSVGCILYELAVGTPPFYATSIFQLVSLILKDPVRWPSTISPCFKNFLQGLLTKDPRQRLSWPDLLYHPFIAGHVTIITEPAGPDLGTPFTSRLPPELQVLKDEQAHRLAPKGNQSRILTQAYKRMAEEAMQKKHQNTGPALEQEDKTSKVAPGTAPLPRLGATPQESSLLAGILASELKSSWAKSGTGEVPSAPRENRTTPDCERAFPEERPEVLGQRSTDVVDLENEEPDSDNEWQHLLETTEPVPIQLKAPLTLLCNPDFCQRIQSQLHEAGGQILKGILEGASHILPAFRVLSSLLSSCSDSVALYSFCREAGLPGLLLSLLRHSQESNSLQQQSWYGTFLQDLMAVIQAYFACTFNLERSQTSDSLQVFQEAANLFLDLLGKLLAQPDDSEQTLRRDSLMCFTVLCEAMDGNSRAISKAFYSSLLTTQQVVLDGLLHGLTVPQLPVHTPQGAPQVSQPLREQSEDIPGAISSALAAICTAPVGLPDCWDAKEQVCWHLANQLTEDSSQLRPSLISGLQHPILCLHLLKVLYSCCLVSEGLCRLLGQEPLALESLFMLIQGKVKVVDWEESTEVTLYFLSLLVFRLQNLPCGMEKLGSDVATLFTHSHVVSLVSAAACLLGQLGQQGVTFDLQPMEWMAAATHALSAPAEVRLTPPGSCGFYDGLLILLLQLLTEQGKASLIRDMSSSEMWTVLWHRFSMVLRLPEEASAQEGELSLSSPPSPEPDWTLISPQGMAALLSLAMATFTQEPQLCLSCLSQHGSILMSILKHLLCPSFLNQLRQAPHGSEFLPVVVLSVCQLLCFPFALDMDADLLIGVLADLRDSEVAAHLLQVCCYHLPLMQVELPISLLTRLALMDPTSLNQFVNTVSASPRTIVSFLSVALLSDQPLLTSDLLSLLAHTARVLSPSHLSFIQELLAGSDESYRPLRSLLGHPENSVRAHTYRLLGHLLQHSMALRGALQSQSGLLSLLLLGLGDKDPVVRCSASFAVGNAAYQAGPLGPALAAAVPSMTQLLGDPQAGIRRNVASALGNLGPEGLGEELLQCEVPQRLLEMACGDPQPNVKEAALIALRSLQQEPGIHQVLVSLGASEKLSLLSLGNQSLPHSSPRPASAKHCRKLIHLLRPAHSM

[7] = target: Dual specificity testis-specific protein kinase 1 (Homo sapiens) (UniProt Q15569)
[8] = target: D(1B) dopamine receptor (Homo sapiens) (UniProt P21918); conditions: Compound concentration 10.0 uM
[9] = target: Serine/threonine-protein kinase TNNI3K (Homo sapiens) (UniProt Q59H18)
[10] = target: Serine/threonine-protein kinase 35 (Homo sapiens) (UniProt Q8TDR2)
[11] = target: T1, Tyrosine-protein kinase ITK/TSK (Homo sapiens) (UniProt Q08881)
T1 sequence (whole entry): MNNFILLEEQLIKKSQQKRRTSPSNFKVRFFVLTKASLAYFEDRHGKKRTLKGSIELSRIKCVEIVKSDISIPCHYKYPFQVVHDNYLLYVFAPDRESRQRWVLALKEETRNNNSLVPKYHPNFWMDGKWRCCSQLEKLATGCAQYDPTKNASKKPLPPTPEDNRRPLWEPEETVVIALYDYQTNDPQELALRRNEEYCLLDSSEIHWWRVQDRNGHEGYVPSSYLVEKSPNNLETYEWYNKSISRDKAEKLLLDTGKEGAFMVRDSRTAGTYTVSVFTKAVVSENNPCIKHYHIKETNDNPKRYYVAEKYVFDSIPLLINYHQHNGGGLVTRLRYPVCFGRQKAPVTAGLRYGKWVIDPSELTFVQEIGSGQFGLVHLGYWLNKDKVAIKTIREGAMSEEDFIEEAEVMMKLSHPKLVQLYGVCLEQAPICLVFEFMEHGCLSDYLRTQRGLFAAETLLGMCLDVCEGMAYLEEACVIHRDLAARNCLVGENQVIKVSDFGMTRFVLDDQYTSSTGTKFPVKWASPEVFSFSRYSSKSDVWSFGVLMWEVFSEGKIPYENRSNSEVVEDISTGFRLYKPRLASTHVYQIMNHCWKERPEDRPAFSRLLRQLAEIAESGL

[12] = test system: ALK tyrosine kinase receptor (Homo sapiens), Q9UM73 [L1196M]
ALK tyrosine kinase receptor (Homo sapiens), Q9UM73 [L1196M], sequence (Q9UM73 whole entry L1196M, looked up): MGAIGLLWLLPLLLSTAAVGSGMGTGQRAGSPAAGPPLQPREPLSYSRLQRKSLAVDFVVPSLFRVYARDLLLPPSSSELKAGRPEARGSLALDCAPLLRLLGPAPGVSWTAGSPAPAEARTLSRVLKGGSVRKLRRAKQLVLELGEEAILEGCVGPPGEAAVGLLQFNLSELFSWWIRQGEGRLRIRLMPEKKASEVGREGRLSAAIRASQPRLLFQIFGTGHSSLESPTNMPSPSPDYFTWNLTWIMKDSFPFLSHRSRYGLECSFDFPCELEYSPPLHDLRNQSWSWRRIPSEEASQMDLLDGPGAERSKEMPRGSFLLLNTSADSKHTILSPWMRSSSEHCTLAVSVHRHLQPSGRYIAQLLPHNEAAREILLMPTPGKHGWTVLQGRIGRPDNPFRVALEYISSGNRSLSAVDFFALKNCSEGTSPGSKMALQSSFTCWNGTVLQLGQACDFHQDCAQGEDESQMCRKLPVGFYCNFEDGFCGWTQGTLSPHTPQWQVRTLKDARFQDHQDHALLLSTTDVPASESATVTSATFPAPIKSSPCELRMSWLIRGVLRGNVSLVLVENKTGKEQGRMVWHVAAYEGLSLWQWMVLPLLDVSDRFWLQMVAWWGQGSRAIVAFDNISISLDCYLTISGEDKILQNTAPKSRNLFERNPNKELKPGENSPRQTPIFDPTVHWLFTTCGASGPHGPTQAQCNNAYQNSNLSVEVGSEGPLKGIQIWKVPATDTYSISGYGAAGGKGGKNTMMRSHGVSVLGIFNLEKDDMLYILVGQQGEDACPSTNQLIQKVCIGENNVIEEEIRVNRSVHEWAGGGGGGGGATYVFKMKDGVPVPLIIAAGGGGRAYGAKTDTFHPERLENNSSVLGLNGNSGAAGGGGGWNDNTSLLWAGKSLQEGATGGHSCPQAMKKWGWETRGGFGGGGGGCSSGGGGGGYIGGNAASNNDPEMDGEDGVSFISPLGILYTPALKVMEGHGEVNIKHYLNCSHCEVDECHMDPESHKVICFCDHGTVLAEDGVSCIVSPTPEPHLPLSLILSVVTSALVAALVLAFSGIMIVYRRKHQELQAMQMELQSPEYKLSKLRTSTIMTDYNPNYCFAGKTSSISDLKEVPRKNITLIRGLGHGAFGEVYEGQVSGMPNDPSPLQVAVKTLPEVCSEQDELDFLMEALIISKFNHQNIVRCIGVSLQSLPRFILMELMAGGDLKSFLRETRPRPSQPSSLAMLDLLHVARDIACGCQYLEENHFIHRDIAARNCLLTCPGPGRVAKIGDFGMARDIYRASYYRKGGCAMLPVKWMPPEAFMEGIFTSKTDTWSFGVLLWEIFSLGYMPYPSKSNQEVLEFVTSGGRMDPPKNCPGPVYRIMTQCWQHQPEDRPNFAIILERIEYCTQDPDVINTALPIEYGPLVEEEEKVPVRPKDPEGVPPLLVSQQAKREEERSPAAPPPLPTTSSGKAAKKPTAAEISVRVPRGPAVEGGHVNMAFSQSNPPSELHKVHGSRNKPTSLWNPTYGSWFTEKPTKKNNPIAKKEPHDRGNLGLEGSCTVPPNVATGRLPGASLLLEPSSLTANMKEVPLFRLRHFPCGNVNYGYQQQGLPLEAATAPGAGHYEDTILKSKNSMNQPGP

[13] = target: T2, Alpha-2A adrenergic receptor (Homo sapiens) (UniProt P08913); conditions: Compound concentration 10.0 uM
T2 sequence (whole entry): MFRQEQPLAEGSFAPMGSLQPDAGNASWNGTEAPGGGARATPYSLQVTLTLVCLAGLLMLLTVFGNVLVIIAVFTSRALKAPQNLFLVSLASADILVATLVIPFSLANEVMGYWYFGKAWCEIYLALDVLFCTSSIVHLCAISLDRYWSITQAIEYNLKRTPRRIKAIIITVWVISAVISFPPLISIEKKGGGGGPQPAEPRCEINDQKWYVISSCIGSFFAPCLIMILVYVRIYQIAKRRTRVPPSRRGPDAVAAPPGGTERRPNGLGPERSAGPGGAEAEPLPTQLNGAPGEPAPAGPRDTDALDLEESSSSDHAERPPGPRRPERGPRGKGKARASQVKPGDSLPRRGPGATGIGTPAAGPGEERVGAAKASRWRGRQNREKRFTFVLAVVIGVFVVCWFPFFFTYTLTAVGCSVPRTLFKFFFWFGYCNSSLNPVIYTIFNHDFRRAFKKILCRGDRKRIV

[14] = target: Activin receptor type-2A (Homo sapiens) (UniProt P27037)
[15] = target: Non-receptor tyrosine-protein kinase TYK2 (Homo sapiens) (UniProt P29597)
[16] = target: Serine/threonine-protein kinase DCLK3 (Homo sapiens) (UniProt Q9C098)
Serine/threonine-protein kinase DCLK3 (Homo sapiens), sequence (Q9C098 whole entry): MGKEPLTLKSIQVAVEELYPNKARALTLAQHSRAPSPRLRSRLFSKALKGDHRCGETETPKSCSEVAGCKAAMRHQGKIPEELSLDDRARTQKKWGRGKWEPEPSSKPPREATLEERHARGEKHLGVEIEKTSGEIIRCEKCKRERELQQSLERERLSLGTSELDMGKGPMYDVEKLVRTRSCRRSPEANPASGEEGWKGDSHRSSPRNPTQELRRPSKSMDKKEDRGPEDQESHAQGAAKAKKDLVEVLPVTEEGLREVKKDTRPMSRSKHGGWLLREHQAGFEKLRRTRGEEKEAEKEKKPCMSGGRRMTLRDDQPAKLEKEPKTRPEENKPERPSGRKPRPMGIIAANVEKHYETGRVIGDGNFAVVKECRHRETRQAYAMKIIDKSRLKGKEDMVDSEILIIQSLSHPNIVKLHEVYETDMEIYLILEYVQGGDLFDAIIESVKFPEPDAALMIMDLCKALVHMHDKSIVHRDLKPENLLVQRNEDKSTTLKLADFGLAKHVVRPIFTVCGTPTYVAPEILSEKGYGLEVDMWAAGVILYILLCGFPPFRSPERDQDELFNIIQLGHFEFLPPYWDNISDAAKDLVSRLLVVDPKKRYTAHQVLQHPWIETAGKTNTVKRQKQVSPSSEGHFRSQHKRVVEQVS

[17] = target: Phosphatidylinositol 4-phosphate 5-kinase type-1 gamma (Homo sapiens) (UniProt O60331)
[18] = target: Serine/threonine-protein kinase ICK (Homo sapiens) (UniProt Q9UPZ9)
Serine/threonine-protein kinase ICK (Homo sapiens), sequence (Q9UPZ9 whole entry): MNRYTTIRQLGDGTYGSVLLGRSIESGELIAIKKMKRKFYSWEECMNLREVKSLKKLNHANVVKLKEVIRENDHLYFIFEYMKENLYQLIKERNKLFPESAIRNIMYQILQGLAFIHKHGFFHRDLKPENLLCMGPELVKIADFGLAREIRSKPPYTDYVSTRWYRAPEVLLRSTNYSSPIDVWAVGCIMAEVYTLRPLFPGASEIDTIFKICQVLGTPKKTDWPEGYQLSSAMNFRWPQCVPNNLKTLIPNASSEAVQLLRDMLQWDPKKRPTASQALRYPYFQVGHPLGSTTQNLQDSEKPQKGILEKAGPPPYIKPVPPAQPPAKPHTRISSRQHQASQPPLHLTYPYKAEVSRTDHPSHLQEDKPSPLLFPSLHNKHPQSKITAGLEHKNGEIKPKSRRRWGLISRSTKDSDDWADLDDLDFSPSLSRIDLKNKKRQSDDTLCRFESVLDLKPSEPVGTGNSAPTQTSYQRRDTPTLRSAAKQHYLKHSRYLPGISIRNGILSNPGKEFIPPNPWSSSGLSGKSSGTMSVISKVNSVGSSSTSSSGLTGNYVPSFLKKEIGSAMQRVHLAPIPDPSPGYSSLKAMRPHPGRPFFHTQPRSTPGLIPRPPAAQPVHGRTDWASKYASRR

[19] = target: T3, Myotonin-protein kinase (Homo sapiens) (UniProt Q09013)
T3 sequence (whole entry): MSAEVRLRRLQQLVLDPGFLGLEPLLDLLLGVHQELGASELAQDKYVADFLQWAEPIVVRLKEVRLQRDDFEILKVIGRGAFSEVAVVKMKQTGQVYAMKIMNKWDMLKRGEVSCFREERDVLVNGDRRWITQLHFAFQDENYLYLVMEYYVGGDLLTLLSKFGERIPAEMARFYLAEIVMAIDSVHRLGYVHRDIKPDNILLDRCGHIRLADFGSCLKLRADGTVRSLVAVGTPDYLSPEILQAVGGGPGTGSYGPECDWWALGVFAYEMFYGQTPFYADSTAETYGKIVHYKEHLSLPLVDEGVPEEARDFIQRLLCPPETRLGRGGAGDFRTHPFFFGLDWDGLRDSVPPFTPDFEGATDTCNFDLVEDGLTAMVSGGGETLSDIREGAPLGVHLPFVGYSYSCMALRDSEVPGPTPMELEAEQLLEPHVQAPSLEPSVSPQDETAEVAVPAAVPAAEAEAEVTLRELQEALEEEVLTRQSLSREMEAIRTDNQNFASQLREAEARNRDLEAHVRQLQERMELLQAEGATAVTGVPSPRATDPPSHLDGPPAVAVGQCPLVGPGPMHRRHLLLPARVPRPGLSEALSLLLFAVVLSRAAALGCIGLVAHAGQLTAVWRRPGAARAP

[20] = target: Rhodopsin kinase GRK1 (Homo sapiens) (UniProt Q15835)
[21] = test system: Tyrosine-protein kinase ABL1 (Homo sapiens), P00519 [H396P]
[22] = target: Serine/threonine-protein kinase WNK1 (Homo sapiens) (UniProt Q9H4A3)
[23] = Compound concentration 100.0 nM
[24] = Compound concentration 1000.0 nM

Serine/threonine-protein kinase 25 (Homo sapiens), sequence (O00506 whole entry, looked up): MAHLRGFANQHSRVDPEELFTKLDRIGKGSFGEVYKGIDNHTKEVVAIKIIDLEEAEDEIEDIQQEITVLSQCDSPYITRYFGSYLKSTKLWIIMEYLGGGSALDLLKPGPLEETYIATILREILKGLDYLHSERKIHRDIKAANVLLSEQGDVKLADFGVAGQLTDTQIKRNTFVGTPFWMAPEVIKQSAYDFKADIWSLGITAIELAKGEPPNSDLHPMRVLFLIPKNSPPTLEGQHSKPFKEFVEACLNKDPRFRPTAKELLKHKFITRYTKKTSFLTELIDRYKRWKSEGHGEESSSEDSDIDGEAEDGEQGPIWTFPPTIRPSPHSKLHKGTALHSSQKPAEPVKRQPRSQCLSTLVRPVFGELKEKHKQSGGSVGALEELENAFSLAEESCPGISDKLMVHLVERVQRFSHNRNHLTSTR
Serine/threonine-protein kinase Nek6 (Homo sapiens), sequence (Q9HC98 whole entry): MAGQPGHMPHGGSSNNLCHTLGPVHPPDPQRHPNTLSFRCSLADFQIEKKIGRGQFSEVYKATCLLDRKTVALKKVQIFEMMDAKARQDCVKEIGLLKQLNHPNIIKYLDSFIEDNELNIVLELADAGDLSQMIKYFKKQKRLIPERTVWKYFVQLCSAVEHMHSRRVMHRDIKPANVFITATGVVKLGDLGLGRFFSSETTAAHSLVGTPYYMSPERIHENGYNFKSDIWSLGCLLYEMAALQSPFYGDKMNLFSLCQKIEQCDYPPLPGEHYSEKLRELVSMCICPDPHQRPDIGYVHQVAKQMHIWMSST

C[C@@H]1CN(c2cc(-c3n[nH]c4ccc(OC5(C)CC5)cc34)ncn2)C[C@H](C)O1 [MLi-2]
inactive: residual activity [1, 23] 96% | residual activity [2, 23] 100% | residual activity [3, 23] 100% | residual activity [4, 23] 96% | residual activity [5, 23] 64% | residual activity [6, 23] 86% | residual activity [7, 23] 75% | inhibition [8] 16.1% | residual activity [9, 23] 78% | residual activity [10, 23] 85% | residual activity [11, 23] 87% | residual activity [12, 23] 78% | inhibition [13] -2.84% | residual activity [14, 23] 94% | residual activity [15, 23] 76% | residual activity [16, 23] 92% | residual activity [17, 23] 92% | residual activity [18, 23] 62% | residual activity [19, 23] 85% | residual activity [20, 23] 83% | residual activity [21, 23] 71% | residual activity [22, 23] 89%

C[C@@H]1CN(c2cc(-c3nn(C)c4ccc(OC5(C)CC5)cc34)ncn2)C[C@H](C)O1 [MLi-2-NC]
inactive: residual activity [1, 24] 100% | residual activity [2, 24] 100% | residual activity [3, 24] 100% | residual activity [4, 24] 73% | residual activity [5, 24] 100% | residual activity [6, 24] 93% | residual activity [7, 24] 100% | inhibition [8] 3.61% | residual activity [9, 24] 71% | residual activity [10, 24] 100% | residual activity [11, 24] 96% | residual activity [12, 24] 98% | inhibition [13] 12.9% | residual activity [14, 24] 100% | residual activity [15, 24] 82% | residual activity [16, 24] 77% | residual activity [17, 24] 90% | residual activity [18, 24] 78% | residual activity [19, 24] 100% | residual activity [20, 24] 100% | residual activity [21, 24] 70% | residual activity [22, 24] 82%
